# Results from US9102614B2, “Naphth-2-ylacetic acid derivatives to treat AIDS” (Gilead Sciences, Inc., priority 2010, dated 2015).
# Tested on: HIV-IIIb
# Assay: Test A: Antiviral Assays in MT4 Cells
# Assay type: cell-based
# Details: Human immunodeficiency virus 1, IIIB, MT4, 120 h, MT-4 cells infected with HIV-IIIb (0.004 m.o.i.), 5 days of incubation, CellTiter-Glo chemiluminescence readout; read-out: EC50
# Method: Test A: Antiviral Assays in MT4 Cells
# For the antiviral assay utilizing MT-4 cells, 0.4 μL of […] test concentration of 3-fold serially diluted compound in DMSO was added to 40 μL of cell growth medium (RPMI 1640, 10% FBS, 1% penicillin/Streptomycin, 1% L-Glutamine, 1% HEPES) in each well of 384-well assay plates (10 concentrations) in quadruplicate.
# 1 mL aliquots of 2×10e6 MT-4 cells are pre-infected for 1 and 3 hrs respectively, @37° C. with 25 μL (MT4) or of either cell growth medium (mock-infected) or a fresh 1:250 dilution of an HIV-IIIb concentrated ABI stock (0.004 m.o.i. for MT4 cells). Infected and uninfected cells are diluted in cell growth medium and 35 uL of 2000 (for MT4) cells is added to each well of the assay plates.
# Assay plates were then incubated in a 37° C. incubator. After 5 days of incubation, 25 μl of 2× concentrated CellTiter-Glo™ Reagent (catalog #G7573, Promega Biosciences, Inc., Madison, Wis.) was added to each well of the assay plate. Cell lysis was carried out by incubating at room temperature for 2-3 min and then chemiluminescence was read using the Envision reader (PerkinElmer).
row,SMILES,EC50 [nM]
1,"COC(=O)NC(C)(C)C#Cc1ccc2cc(C)c(C(OC(C)(C)C)C(=O)O)c(-c3ccc(Cl)cc3)c2c1 (stereo not drawn) [Compound 97, 2-tert-Butoxy-2-(1-(4-chlorophenyl)-7-(3-(methoxycarbonylamino)-3-methylbut-1-ynyl)-3-methylnaphthalen-2-yl)acetic acid]",300
2,"Cc1c(C(OC(C)(C)C)C(=O)O)c(-c2ccc(Cl)cc2)c2ccccc2c1-c1ccc(N)nc1 (stereo not drawn) [Compound 143, 2-(4-(6-Aminopyridin-3-yl)-1-(4-chlorophenyl)-3-methylnaphthalen-2-yl)-2-tert-butoxyacetic acid]",56
3,"Cc1c(C(OC(C)(C)C)C(=O)O)c(-c2ccc(Cl)cc2)c2ccccc2c1Br (stereo not drawn) [Compound 126, 2-(4-Bromo-1-(4-chlorophenyl)-3-methylnaphthalen-2-yl)-2-tert-butoxyacetic acid]",833
4,"Cc1ccc2cc(C)c(C(OC(C)(C)C)C(=O)O)c(-c3ccc(Cl)cc3)c2c1 (stereo not drawn) [Compound 78, 2-tert-Butoxy-2-(1-(4-chlorophenyl)-3,7-dimethylnaphthalen-2-yl)acetic acid]",300
5,"Cc1ccc2c(-c3ccc(Cl)cc3)c(C(OC(C)(C)C)C(=O)O)c(C)cc2c1 (stereo not drawn) [Compound 58, 2-tert-Butoxy-2-(1-(4-chlorophenyl)-3,6-dimethylnaphthalen-2-yl)acetic acid]",42
6,"Cc1cc2cc(C(F)F)ccc2c(-c2ccc3c4c(ccnc24)CCO3)c1[C@H](OC(C)(C)C)C(=O)O [Compound 181, (S)-2-tert-butoxy-2-((R)-6-(difluoromethyl)-1-(2,3-dihydropyrano[4,3,2-de]quinolin-7-yl)-3-methylnaphthalen-2-yl)acetic acid]",5
7,"Cc1c(C(OC(C)(C)C)C(=O)O)c(-c2ccc(Cl)cc2)c2ccccc2c1CCCN(C)C (stereo not drawn) [Compound 132, 2-tert-Butoxy-2-(1-(4-chlorophenyl)-4-(3-(dimethylamino)propyl)-3-methylnaphthalen-2-yl)acetic acid]",118
8,"CC(C)(C)O[C@H](C(=O)O)c1c(CO)cc2ccccc2c1-c1ccc(Cl)cc1 [Compound 30, (S)-2-tert-Butoxy-2-(1-(4-chlorophenyl)-3-(hydroxymethyl)naphthalen-2-yl)acetic acid]",44
9,"Cc1c(C(OC(C)(C)C)C(=O)O)c(-c2ccc(Cl)cc2)c2ccccc2c1CN1CCOCC1 (stereo not drawn) [Compound 134, 2-tert-Butoxy-2-(1-(4-chlorophenyl)-3-methyl-4-(morpholinomethyl)naphthalen-2-yl)acetic acid]",150
10,"Cc1cc2c(Cl)c(C)ccc2c(-c2ccc3c4c(ccnc24)CCO3)c1[C@H](OC(C)(C)C)C(=O)O (atropisomer, axis not shown) [Compound 151]",850
11,"COCc1cc2ccccc2c(-c2ccc(Cl)cc2)c1[C@H](OC(C)(C)C)C(=O)O [Compound 28, (S)-2-tert-Butoxy-2-(1-(4-chlorophenyl)-3-(methoxymethyl)naphthalen-2-yl)acetic acid]",400
12,"Cc1cc2ccc(C#CC3(O)CCCC3)cc2c(-c2ccc(Cl)cc2)c1C(OC(C)(C)C)C(=O)O (stereo not drawn) [Compound 73, 2-tert-butoxy-2-(1-(4-chlorophenyl)-7-((1-hydroxycyclopentyl)ethynyl)-3-methylnaphthalen-2-yl)acetic acid]",130
13,"C=Cc1cc2ccccc2c(-c2ccc(Cl)cc2)c1[C@H](OC(C)(C)C)C(=O)O [Compound 29A, (S)-2-tert-Butoxy-2-(1-(4-chlorophenyl)-3-vinylnaphthalen-2-yl)acetic acid]",130
14,"Cc1c(C(OC(C)(C)C)C(=O)O)c(-c2ccc(Cl)cc2)c2ccccc2c1-c1ccc(N(C)C)nc1 (stereo not drawn) [Compound 137, 2-tert-Butoxy-2-(1-(4-chlorophenyl)-4-(6-(dimethylamino)pyridin-3-yl)-3-methylnaphthalen-2-yl)acetic acid]",130
15,"Cc1cc2cc(Cl)ccc2c(-c2ccc(Cl)cc2)c1C(OC(C)(C)C)C(=O)O (racemic) [Compound 67, 2-tert-Butoxy-2-(6-chloro-1-(4-chlorophenyl)-3-methylnaphthalen-2-yl)acetic acid]",290
16,"CC(C)(C)O[C@H](C(=O)O)c1c(COc2cccnc2)cc2ccccc2c1-c1ccc(Cl)cc1 [Compound 25, (S)-2-tert-Butoxy-2-(1-(4-chlorophenyl)-3-((pyridin-3-yloxy)methyl)naphthalen-2-yl)acetic acid]",26000
17,"Cc1cc2ccc(C#CC(C)(C)N)cc2c(-c2ccc(Cl)cc2)c1[C@H](OC(C)(C)C)C(=O)O [Compound 98, (S)-2-(7-(3-Amino-3-methylbut-1-ynyl)-1-(4-chlorophenyl)-3-methylnaphthalen-2-yl)-2-tert-butoxyacetic acid]",10
18,"Cc1cc2cc(-c3ccccn3)ccc2c(-c2ccc(Cl)cc2)c1[C@H](OC(C)(C)C)C(=O)O [Compound 63, (S)-2-tert-Butoxy-2-(1-(4-chlorophenyl)-3-methyl-6-(pyridin-2-yl)naphthalen-2-yl)acetic acid]",99
19,"CCc1cc2cc(C)c([C@H](OC(C)(C)C)C(=O)O)c(-c3ccc4c5c(ccnc35)CCO4)c2cc1F (atropisomer, axis not shown) [Compound 165]",53000
20,"Cc1cc2c(F)cc(F)cc2c(-c2ccc3c4c(ccnc24)CCO3)c1[C@H](OC(C)(C)C)C(=O)O (atropisomer, axis not shown) [Compound 172]",50000
21,"COc1ccc2c(-c3ccc(Cl)cc3)c(C(OC(C)(C)C)C(=O)O)c(C)cc2c1 (stereo not drawn) [Compound 48, 2-tert-Butoxy-2-(1-(4-chlorophenyl)-6-methoxy-3-methylnaphthalen-2-yl)acetic acid]",210
22,"Cc1c(C(OC(C)(C)C)C(=O)O)c(-c2ccc(Cl)cc2)c2ccccc2c1CO (stereo not drawn) [Compound 135, 2-tert-Butoxy-2-(1-(4-chlorophenyl)-4-(hydroxymethyl)-3-methylnaphthalen-2-yl)acetic acid]",45
23,"Cc1cc2ccccc2c(-c2ccc3c4c2NCCC4CCO3)c1[C@H](OC(C)(C)C)C(=O)O (stereo partly drawn) [Compound 20, (2S)-2-tert-Butoxy-2-(1-((7R)-2,3,3a,4,5,6-hexahydropyrano[4,3,2de]quinolin-7-yl)-3-methylnaphthalen-2-yl)acetic acid]",93
24,"Cc1cc2c(Br)cccc2c(-c2ccc(Cl)cc2)c1C(OC(C)(C)C)C(=O)O (stereo not drawn) [Compound 37, 2-(5-Bromo-1-(4-chlorophenyl)-3-methylnaphthalen-2-yl)-2-tert-butoxyacetic acid]",1200
25,"Cc1cc2ccc(C#CC(C)(O)c3ccccc3)cc2c(-c2ccc(Cl)cc2)c1C(OC(C)(C)C)C(=O)O (stereo not drawn) [Compound 88, 2-tert-Butoxy-2-(1-(4-chlorophenyl)-7-(3-hydroxy-3-phenylbut-1-ynyl)-3-methylnaphthalen-2-yl)acetic acid]",24

# Same assay, conditions: MT-4 cells infected with HIV-IIIb (0.004 m.o.i.), 5 days of incubation, CellTiter-Glo chemiluminescence readout; read-out: EC50
row,SMILES,EC50 [nM]
1,"Cc1cc2cc(C(N)=O)c(F)cc2c(-c2ccc3c4c(ccnc24)CCO3)c1[C@H](OC(C)(C)C)C(=O)O [Compound 106B, (S)-2-tert-Butoxy-2-((R)-6-carbamoyl-1-(2,3-dihydropyrano[4,3,2-de]quinolin-7-yl)-7-fluoro-3-methylnaphthalen-2-yl)acetic acid]",91
2,"CNC(=O)c1cc2cc(C)c([C@H](OC(C)(C)C)C(=O)O)c(-c3ccc4c5c(ccnc35)CCO4)c2cc1F [Compound 107, (S)-2-tert-Butoxy-2-((R)-1-(2,3-dihydropyrano[4,3,2-de]quinolin-7-yl)-7-fluoro-3-methyl-6-(methylcarbamoyl)naphthalen-2-yl)acetic acid]",92
3,"Cc1cc2cc(Cl)c(F)cc2c(-c2ccc3c4c(ccnc24)CCO3)c1[C@H](OC(C)(C)C)C(=O)O [Compound 101, (S)-2-tert-Butoxy-2-((R)-6-chloro-1-(2,3-dihydropyrano[4,3,2-de]quinolin-7-yl)-7-fluoro-3-methylnaphthalen-2-yl)acetic acid]",41
4,Cc1cc2c(Cl)cccc2c(-c2ccc3c4c(ccnc24)CCO3)c1C(OC(C)(C)C)C(=O)O (stereo not drawn) [Compound 163],16000
5,"Cc1cc2cc(F)c(F)cc2c(-c2ccc3c4c(ccnc24)CCO3)c1[C@@H](OC(C)(C)C)C(=O)O [Compound 109, (R)-2-tert-Butoxy-2-((R)-1-(2,3-dihydropyrano[4,3,2-de]quinolin-7-yl)-6,7-difluoro-3-methylnaphthalen-2-yl)acetic acid]",29000
6,"Cc1cc2cc(Cl)ccc2c(-c2ccc3c4c(ccnc24)CCO3)c1[C@H](OC(C)(C)C)C(=O)O [Compound 68A, (S)-2-tert-Butoxy-2-((R)-6-chloro-1-(2,3-dihydropyrano[4,3,2-de]quinolin-7-yl)-3-methylnaphthalen-2-yl)acetic acid]",14
7,"Cc1cc2c(F)c(CN(C)C)ccc2c(-c2ccc3c4c(ccnc24)CCO3)c1[C@H](OC(C)(C)C)C(=O)O [Compound 186A, (S)-2-tert-butoxy-2-((R)-1-(2,3-dihydropyrano[4,3,2-de]quinolin-7-yl)-6-((dimethylamino)methyl)-5-fluoro-3-methylnaphthalen-2-yl)acetic acid]",1690
8,"Cc1cc2c(Cl)cccc2c(-c2ccc3c4c(ccnc24)CCO3)c1C(OC(C)(C)C)C(=O)O [Compound 47, 2-tert-Butoxy-2-((R)-5-chloro-1-(2,3-dihydropyrano[4,3,2-de]quinolin-7-yl)-3-methylnaphthalen-2-yl)acetic acid]",110
